# Data published in patent US9040516B2, “Uracil derivative and use thereof for medical purposes” (SUMITOMO DAINIPPON PHARMA CO., LTD., priority 2011, dated 2015).
# pIC50: −log10 of the molar value.
# Biological target: T1, human neutrophil elastase (Homo sapiens, UniProt P08246)
# T1 construct: purchased Elastin Products Company
# T1 sequence (P08246 30-267): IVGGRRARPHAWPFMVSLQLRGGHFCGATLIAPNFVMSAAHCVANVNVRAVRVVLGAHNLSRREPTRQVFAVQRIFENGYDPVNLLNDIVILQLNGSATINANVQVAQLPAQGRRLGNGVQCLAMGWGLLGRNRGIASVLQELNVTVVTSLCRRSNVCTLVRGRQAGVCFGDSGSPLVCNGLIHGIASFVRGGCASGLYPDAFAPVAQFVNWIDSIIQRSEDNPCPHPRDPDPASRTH
# Assay: Inhibitory action 2 against human neutrophil elastase (Test Example 2; fluorogenic substrate MeOSuc-AAPV-AMC, buffer with 400 mM NaCl, 0.2 mg/ml BSA)
# Assay type: biochemical
# Conditions: 37° C., read-out: IC50 value (compound concentration required for 50% inhibition of human neutrophil elastase)
# Experimental: (§1) Assay buffer (0.4 unit/ml HNE (human neutrophil elastase, available from Elastin Products Company), 200 mM HEPES [N-(2-hydroxyethyl)piperazine-N′-(2-ethanesulfonic acid)], pH 7.5, 400 mM NaCl, 0.2 mg/ml BSA (bovine serum albumin)) 100 μl, water for injection 20 μl and 1% DMSO (dimethyl sulfoxide) solution of the present compound 20 μl were mixed in a 96 well plate and the mixed solutions were pre-incubated at 37° C. for five minutes. After pre-incubation, MeOSuc-AAPV-AMC (methoxysuccinyl-alanyl-alanyl-prolyl-valyl-aminomethyl cumaride (available from Sigma Aldrich Corp.) solution as fluorogenic substrate (which was dissolved in 10% DMSO solution so as to adjust to 0.5 mM) 40 μl was added to the above-prepared mixed solution so as to initiate the reaction, and the mixture was incubated at 37° C. for five minutes. The fluorescence intensity of AMC was measured at an excitation wavelength of 380 nm and a fluorescence wavelength of 460 nm and the inhibition ratio was determined.
row,Compound,pIC50
1,"Cc1c(-c2c(S(C)(=O)=O)cnn2-c2ccc(C#N)cc2)c(=O)n(C(C)C)c(=O)n1-c1cccc(C(F)(F)F)c1 (racemic) [Example 276, (±)-4-(5-(3-Isopropyl-6-methyl-2,4-dioxo-1-(3-trifluoromethylphenyl)-1,2,3,4-tetrahydropyrimidin-5-yl-4-(methylsulfonyl)-1H-pyrazol-1-yl)benzonitrile]",7.92
2,"Cc1c(-n2cnnc2-c2ccc(C#N)cc2)c(=O)n(C(C)C)c(=O)n1-c1cccc(C(F)(F)F)c1 [Example 65, 4-(4-(3-Isopropyl-6-methyl-2,4-dioxo-1-(3-(trifluoromethyl)phenyl)-1,2,3,4-tetrahydropyrimidin-5-yl)-4H-1,2,4-triazol-3-yl)benzonitrile]",8.26

# Biological target: T1, human neutrophil elastase
# Assay: Inhibitory action against human neutrophil elastase (Test Example 1; fluorogenic substrate MeOSuc-AAPV-AMC, buffer with 2M NaCl, 0.002% Brij-35)
# Assay type: biochemical
# Conditions: 37° C., read-out: IC50 value (compound concentration required for 50% inhibition of human neutrophil elastase)
# Experimental: as §1, with “7.5, 2M” for “7.5, 400 mM”, “NaCl, 0.002% Brij-35)” for “NaCl, 0.2 mg/ml BSA (bovine serum albumin))”, “injection 40” for “injection 20”, “and” for “and 1%”, “Aldrich Co.)” for “Aldrich Corp.)”
row,Compound,pIC50
1,CCOC(=O)Cn1c(=O)c(-c2ccnn2-c2ccc(C#N)cc2)c(C)n(-c2cccc(C(F)(F)F)c2)c1=O [Example 3],6.98
2,"Cc1c(-c2ccnn2-c2ccc(C#N)cc2)c(=O)n(CCCCCNC(=O)OC(C)(C)C)c(=O)n1-c1cccc(C(F)(F)F)c1 [Example 30, Tert-butyl 5-[5-[1-(4-cyanophenyl)-1H-pyrazol-5-yl]-4-methyl-2,6-dioxo-3-(3-trifluoromethyl)-2,3-dihydropyrimidine-1 (6H)-yl]pentylcarbamate]",7.19
3,"CCCn1c(=O)c(-c2ccnn2-c2ccc(C#N)cc2)c(N)n(-c2cccc([N+](=O)[O-])c2)c1=O [Example 57, 4-[5-[6-Amino-1-(3-nitrophenyl)-2,4-dioxo-3-propyl-1,2,3,4-tetrahydropyrimidin-5-yl]-1H-pyrazol-1-yl]benzonitrile]",6.80
4,"Cc1c(-c2ccnn2-c2ccc(C#N)cc2)c(=O)n(C)c(=O)n1-c1ccc(F)c(C(F)(F)F)c1 [Example 13, 4-[5-[1-(4-fluoro-3-trifluorophenyl)-3,6-dimethyl-2,4-dioxo-1,2,3,4-tetrahydropyrimidin-5-yl]-1H-pyrazol-1-yl]benzonitrile]",7.07
5,"Cc1c(-c2ccnn2-c2ccc(C#N)cc2)c(=O)n(CCN(C)C)c(=O)n1-c1cccc(C(F)(F)F)c1 [Example 69, 4-[5-[3-(2-Dimethylaminoethyl)-6-methyl-2,4-dioxo-1-(3-trifluoromethylphenyl)-1,2,3,4-tetrahydropyrimidin-5-yl]-1H-pyrazol-1-yl]benzonitrile]",6.94
6,"CCCn1c(=O)c(-n2cnnc2-c2ccc(C#N)cc2)c(C)n(-c2cccc(C(F)(F)F)c2)c1=O [Example 62, 4-[4-[6-Methyl-2,4-dioxo-3-propyl-1-(3-trifluoromethylphenyl)-1,2,3,4-tetrahydropyrimidin-5-yl]-4H-1,2,4-triazol-3-yl]benzonitrile]",7.17
7,"2-[3,6-dimethyl-2,4-dioxo-1-(3-trifluoromethylphenyl)-1,2,3,4-tetrahydropyrimidin-5-yl]biphenyl-4-carbonitrile [Example 60]",7.12
8,"Cc1c(-c2ccnn2-c2ccc(C#N)cc2)c(=O)n(CCCCCNC(=O)OC(C)(C)C)c(=O)n1-c1cccc(C(F)(F)F)c1 [Example 8, tert-butyl 5-[5-[1-(4-cyanophenyl)-1H-pyrazol-5-yl]-4-methyl-2,6-dioxo-3-(3-trifluoromethyl)-2,3-dihydropyrimidine-1(6H)-yl]pentylcarbamate]",7.19
9,"Cc1c(-c2cccnc2-c2ccc(C#N)cc2)c(=O)n(C)c(=O)n1-c1cccc(C(F)(F)F)c1 [Example 61, 4-[3-[3,6-dimethyl-2,4-dioxo-1-(3-trifluoromethylphenyl)-1,2,3,4-tetrahydropyrimidin-5-yl]-pyridin-2-yl]benzonitrile]",7.13
10,"Cc1c(-c2ccnn2-c2ccc(C#N)cc2)c(=O)n(C)c(=O)n1-c1cccc(F)c1 [Example 11, 4-[5-[1-(3-fluorophenyl)-3,6-dimethyl-2,4-dioxo-1,2,3,4-tetrahydropyrimidin-5-yl]-1H-pyrazol-1-yl]benzonitrile]",5.87
11,"Cc1c(-c2ccnn2-c2ccc(C#N)cc2)c(=O)n(C)c(=O)n1-c1cccc(C#N)c1 [Example 10, 3-[5-[1-(4-cyanophenyl)-1H-pyrazol-5-yl]-3,6-dimethyl-2,4-dioxo-3,4-dihydropyrimidin-1(2H)-yl]benzonitrile]",6.19
12,"Cc1c(-c2ccnn2-c2ccc(C#N)cc2)c(=O)n(C)c(=O)n1-c1cccc(S(C)(=O)=O)c1 [Example 39, 4-(5-(3,6-dimethyl-1-(3-(methylsulfonyl)phenyl)-2,4-dioxo-1,2,3,4-tetrahydropyrimidin-5-yl)-1H-pyrazol-1-yl)benzonitrile]",4.70

# The next lines start with the values.
row,pIC50,Compound
1,4.86,"Cc1c(-c2ccnn2-c2ccc(C#N)cc2)c(=O)n(C)c(=O)n1-c1cccc(C(=O)N(C)C)c1 [Example 106, 3-[5-[1-(4-cyanophenyl)1H-pyrazol-5-yl]-3,6-dimethyl-2,4-dioxo-3,4-dihydropyrimidin-1(2H)yl]-N,N-dimethylbenzamide]"
2,5.10,"Cc1c(-c2ccnn2-c2ccc(C#N)cc2)c(=O)n(C)c(=O)n1-c1cccc(C(C)(C)C)c1 [Example 38, 4-(5-(1-(3-tert-butylphenyl)-3,6-dimethyl-2,4-dioxo-1,2,3,4-tetrahydropyrimidin-5-yl)-1H-pyrazol-1-yl)benzonitrile]"
3,5.65,"CN(C)C=Nc1c(-c2ccnn2-c2ccc(C#N)cc2)c(=O)n(C)c(=O)n1-c1cccc(C(F)(F)F)c1 [Example 28, N′-[5-[1-(4-cyanophenyl)-1H-pyrazol-5-yl]-1-methyl-2,6-dioxo-3-(3-trifluoromethylphenyl)-1,2,3,6-tetrahydropyrimidin-4-yl]-N,N-dimethylformimidamide]"
4,6.10,"Cc1c(-c2ccnn2-c2ccc(F)cc2)c(=O)n(C)c(=O)n1-c1cccc(C(F)(F)F)c1 [Example 22, 5-[1-(4-fluorophenyl)-1H-pyrazol-5-yl]-3,6-dimethyl-1-(3-trifluoromethylphenyl)pyrimidin-2,4(1H,3H)-dione]"
5,6.51,"Cc1c(-c2ccnn2-c2ccc(C#N)cc2)c(=O)n(CCCC(=O)O)c(=O)n1-c1cccc(C(F)(F)F)c1 [Example 74, 4-[5-[1-(4-Cyanophenyl)-1H-pyrazol-5-yl]-4-methyl-2,6-dioxo-3-(3-trifluoromethylphenyl)-2,3-dihydropyrimidin-1(6H)-yl]butanoic acid]"
6,6.60,"5-[1-(-chlorophenyl)-1H-pyrazol-5-yl]-3,6-dimethyl-1-(3-trifluoromethylphenyl)pyrimidin-2,4(1H,3H)-dione [Example 21]"
7,6.77,"CC(=O)NCCn1c(=O)c(-c2ccnn2-c2ccc(C#N)cc2)c(C)n(-c2cccc(C(F)(F)F)c2)c1=O [Example 71, N-[2-[5-[1-(4-Cyanophenyl)-1H-pyrazol-5-yl]-4-methyl-2,6-dioxo-3-(3-trifluoromethylphenyl)-2,3-dihydropyrimidin-1(6H)-yl]ethyl]acetamide]"
8,6.92,"COC(Cn1c(=O)c(-c2ccnn2-c2ccc(C#N)cc2)c(C)n(-c2cccc(C(F)(F)F)c2)c1=O)OC [Example 7, 4-[5-[3-(2,2-dimethoxyethyl)-6-methyl-2,4-dioxo-1-(3-trifluoromethylphenyl)-1,2,3,4-tetrahydropyrimidin-5-yl]-1H-pyrazol-1-yl]benzonitrile]"
9,8.49,"CC(=O)NCCCCCn1c(=O)c(-c2ccnn2-c2ccc(C#N)cc2)c(C)n(-c2cccc(C(F)(F)F)c2)c1=O [Example 86, N-[5-[5-[1-(4-Cyanophenyl)-1H-pyrazol-5-yl]-4-methyl-2,6-dioxo-3-(3-trifluoromethylphenyl)-2,3-dihydropyrimidin-1(6H)-yl]pentyl]acetamide]"

# Same assay, conditions: at 100 μM
row,Compound,Inhibition ratio (%)
1,"COC(=O)c1cccc(-n2c(C)c(-c3ccnn3-c3ccc(C#N)cc3)c(=O)n(C)c2=O)c1 [Example 32, 3-[5-[1-(4-cyanophenyl)-1H-pyrazol-5-yl]-3,6-dimethyl-2,4-dioxo-3,4-dihydropyrimidin-1(2H)-yl]benzoic acid methyl ester]",50%
2,"Cc1c(-c2ccnn2-c2cccc(C#N)c2)c(=O)n(C)c(=O)n1-c1cccc(C(F)(F)F)c1 [Example 35, 3-[5-[3,6-dimethyl-2,4-dioxo-1-(3-trifluoromethylphenyl)-1,2,3,4-tetrahydropyrimidin-5-yl]-1H-pyrazol-1-yl]benzonitrile]",49%
3,"Cc1c(-c2ccnn2-c2ccccc2)c(=O)n(C)c(=O)n1-c1cccc(C(F)(F)F)c1 [Example 20, 3,6-dimethyl-5-(1-phenyl-1H-pyrazol-5-yl)-1-(3-trifluoromethylphenyl)pyrimidin-2,4(1H,3H)-dione]",83%
